Data on one compound can be found in patent US11021486B2, “Coumarin-like cyclic compound as MEK inhibitor and use thereof” (CSTONE PHARMACEUTICALS, priority 2017, dated 2021).

One data set deals with HT29 cells. In words: Cell viability experiment (Cell Titer-Glo), HT29. The following applies: Homo sapiens, HT-29, 72 h, read-out: HT29 IC50, HT29 cells, 3 days incubation. Format: cell-based, human. The protocol: (§1) Biological Test Method 2: Cell Viability Experiment
(§2) HT29 and A375 cells were plated in a 96-well cell culture plate at a density of 40,000 cells/well and 20,000 cells/well respectively, and the cells were cultured overnight. The compounds were serially diluted in a gradient of 1:3, the dilutions were added to the cell culture medium, and incubated with the cells in a 37° C. incubator for 3 days. The 96-well cell culture plate was taken from the incubator and equilibrated at room temperature for 30 minutes, then Cell Titer-Glo reagent (Promega Cat #G7573) was added at a ratio of 1:2, and the mixture was mixed thoroughly on a shaker for 2 minutes to promote cell lysis. The cell culture plate was incubated at room temperature for 10 minutes and then read on an Envision microplate reader (PerkinElmer). XLfit5 software was used for data analysis and mapping.

Another data set concerns A375 cells. Description: Cell viability experiment (Cell Titer-Glo), A375. Format: cell-based. The following applies: Homo sapiens, A-375, 72 h, read-out: A375 IC50, A375 cells, 3 days incubation. The protocol:
as §1, §2

Data set [1] can be described thus: Pharmacokinetics study of the compounds in C57BL/6 mice. Format: in vivo. The following applies: male, mouse, single intravenous and oral dose, plasma. The protocol: Biological Test Method 4: Pharmacokinetics Study of the Compounds in C57BL/6 Mice Experimental Materials: C57BL/6 mice (male, 18-22 g, 7-9 weeks old, Shanghai Lingchang) Experimental Procedure: The pharmacokinetic characteristics of the compounds in rodents were determined after intravenous and oral administration of the compounds by standard protocols. In the experiment, candidate compounds were formulated into clear solutions, and intravenously and orally administrated to […] in a single dose. The menstruum for intravenous and oral administration was DMSO, PEG and water at a certain ratio or Solutol, HPMC and SLS aqueous solutions at a certain ratio. The whole blood samples within 24 hours were collected, centrifuged at 3,000 rpm for 15 minutes, and the supernatants were isolated to obtain plasma samples. An acetonitrile solution containing an internal standard with a volume of 4 times as the plasma sample volume was added to precipitate the protein. After centrifugation, the supernatant was collected and an equal volume of water was added. After centrifugation, the supernatant was collected and injected to quantitatively analyze the blood drug concentration by LC-MS/MS analysis method, and the pharmacokinetic parameters were calculated, e.g., peak concentration, peak time, clearance, half-life, area under the drug concentration-time curve, bioavailability, etc.

Data set [2] deals with HT-29 cell subcutaneous xenograft tumor. In words: In vivo pharmacodynamics study on HT-29 cell subcutaneous xenograft tumor model. Also on record: species or system BALB/c nude mouse. The following applies: 0.5 mpk (0-11 D): 0.35 mpk (12-21 D), QD, 21 days. As to the method:
Biological Test Method 3: In Vivo Pharmacodynamics Study on HT-29 Cell Subcutaneous Xenograft Tumor Model in BALB/c Nude Mouse
Human colon cancer HT-29 cells (ATCC-HTB-38) were cultured in monolayer in vitro, with McCoy's 5a medium (Gibco, 1835937) supplemented with 10% fetal bovine serum, 100 U/mL penicillin and 100 μg/mL streptomycin, at 37° C. under 5% CO2. The cells were conventionally digested with trypsin-EDTA and passaged twice a week. When the cell saturation was 80%-90%, the cells were collected, counted and inoculated. 0.1 mL (5×10^6) of HT-29 cells was subcutaneously inoculated into the right back of each nude mouse. […] The diameter of the tumor was measured twice a week with a vernier caliper. The tumor volume is calculated by the formula: V=0.5a×b^2, wherein a and b represent the length and width respectively. The antitumor activity of the compounds was evaluated by TGI (%), which reflects the tumor growth inhibition rate. Calculation of TGI (%): TGI (%)=[(1−(average tumor volume at the end of administration in a treatment group−average tumor volume at the start of treatment in this treatment group))/(average tumor volume at the end of treatment in the solvent control group−average tumor volume at the start of treatment in the solvent control group)]×100%.

In another data set the target is T1, activated MEK1 (Homo sapiens, UniProt Q02750).
T1 construct: purchased Millipore 14-429
T1 sequence (Q02750 whole entry): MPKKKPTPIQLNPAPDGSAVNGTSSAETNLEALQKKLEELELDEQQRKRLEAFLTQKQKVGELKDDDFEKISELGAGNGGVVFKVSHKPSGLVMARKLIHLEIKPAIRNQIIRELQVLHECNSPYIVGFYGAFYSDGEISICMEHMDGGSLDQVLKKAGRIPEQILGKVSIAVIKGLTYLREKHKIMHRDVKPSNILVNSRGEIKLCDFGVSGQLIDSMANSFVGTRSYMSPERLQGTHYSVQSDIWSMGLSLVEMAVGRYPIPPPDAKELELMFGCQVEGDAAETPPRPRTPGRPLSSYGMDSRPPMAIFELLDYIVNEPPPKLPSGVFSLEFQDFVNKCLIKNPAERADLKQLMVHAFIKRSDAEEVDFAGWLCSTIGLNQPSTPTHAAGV
Description: MEK Lance Ultra experiment. The following applies: 0.07 nM activated MEK1, 2 nM non-activated ERK, 50 μM ATP; read-out: MEK potency IC50. Format: biochemical. As to the method:
Biological Test Method 1: MEK Lance Ultra Experiment Compounds were serially diluted three-fold to 10 concentrations, two duplicates were set. Final test concentrations of the compounds ranged from 10 μM to 0.51 nM. 0.07 nM activated MEK1 (Millipore #14-429) and 2 nM non-activated ERK (Millipore #14-515) were mixed with the compounds or DMSO, the mixture was incubated at 23° C. for 30 minutes. Then 50 nM ULight labeled MBP (PerkinElmer #TRF0109-M) and 50 μM ATP (Invitrogen #PV3227) were added to initiate the reaction, and the mixture was incubated at 23° C. for 90 minutes. After the reaction was stopped by adding EDTA at a final concentration of 15 mM, 2 nM Eu-labeled anti-phosphorylated antibody (PerkinElmer #TRF0201-M) was added and incubated for 1 hour. The fluorescence signal data (excitation band: 320 nm; emission band: 665 nM/615 nM) was determined by an Envision microplate reader (PerkinElmer). XLfit5 software was used for data analysis and mapping.

Regarding `Cc1c(NS(C)(=O)=O)cccc1-c1c(C)n(C2CC2)c(=O)c2c(Nc3ccc(I)cc3F)c(C)c(=O)oc12` [WX086], the IC50 in the data set on HT29 cells was found to be 0.62 nM; with A375 cells, 0.4 nM; at activated MEK1, 29.6 nM. In addition, in data set [1], the clearance was determined as 2.2 mL/min/kg. In addition, the bioavailability in data set [1] (read-out: Bioavailability F) amounted to 76.8%. In addition, the AUC in data set [1] (read-out: Comcentration quadrature AUC) was 23.4 µM·h. For the same compound, the half-life in data set [1] (read-out: Half life T1/2 (converted)) is 7 h. Besides, the TGI in data set [2] came out at 83.1%.
